From patent US11840686B2, “Modulation of prekallikrein (PKK) expression” (Ionis Pharmaceuticals, Inc., priority 2013, dated 2023)
Strand notation (5' to 3'): a small letter for the sugar, then the base; units joined by * are phosphorothioate-linked, units joined directly phosphodiester-linked; [ ] holds rarer units or linkages, { } end groups; capitals alone tell only the bases. e = 2'-O-(2-methoxyethyl) (MOE); [5mC] = 5-methylcytosine; d = 2'-deoxy (DNA)

Each substance was assayed on human PKK mRNA (assay: Antisense inhibition of human PKK mRNA in HepaRG cells, 5,000 nM (Example 2)). Conditions: HepaRG cells, 5,000 nM antisense oligonucleotide; 5-10-5 gapmers; Table 16.
Type: cell-based
Procedure, shortened: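 Percent inhibition of PKK mRNA is relative to untreated control, with qRT-PCR (probe set RTS3454) values adjusted to total RNA by RIBOGREEN. Oligonucleotides, fully phosphorothioate 2′-MOE gapmers, were delivered at 5,000 nM by electroporation into 20,000 HepaRG cells/well for about 24 h.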

Row | Substance | % inhibition [%]
1 | 547697 (antisense eT*e[5mC]*eA*e[5mC]*eT*dG*dT*d[5mC]*d[5mC]*dT*dA*dT*dA*dA*d[5mC]*eT*eA*eT*eT*eA) [compound 547697] | 63
2 | 547690 (antisense e[5mC]*eT*eG*eT*eA*dA*d[5mC]*dA*dA*dT*dA*dT*d[5mC]*dA*d[5mC]*eT*eG*eT*e[5mC]*e[5mC]) [compound 547690] | 76
3 | 547682 (antisense e[5mC]*eA*eA*eT*eA*dT*d[5mC]*dA*d[5mC]*dT*dG*dT*dA*d[5mC]*d[5mC]*eT*eA*eT*eA*eT) [compound 547682] | 20
4 | 547721 (e[5mC]*eT*e[5mC]*eT*eA*dT*d[5mC]*dA*dA*dA*dA*dT*d[5mC]*d[5mC]*dT*eG*e[5mC]*eT*eG*e[5mC]; antisense) [compound 547721] | 68
5 | 546955 (eA*e[5mC]*eA*eA*eG*dG*d[5mC]*dT*dT*d[5mC]*dG*dA*dG*dG*dA*e[5mC]*eA*eG*e[5mC]*e[5mC]; antisense) [compound 546955] | 49

Same assay, conditions: HepaRG cells, 5,000 nM antisense oligonucleotide; 5-10-5 gapmers; Table 17

Row | Substance | % inhibition [%]
6 | 547013 (eT*eG*eA*eG*eA*dT*dT*dG*dG*dT*dG*dG*dT*dG*dG*eG*eT*eG*eG*e[5mC]; antisense) [compound 547013] | 0
7 | 546599 (eA*eA*eG*eA*eG*dT*dA*dA*dG*d[5mC]*d[5mC]*dT*dT*d[5mC]*dA*e[5mC]*eA*eG*eG*eG; antisense) [compound 546599] | 82
8 | 547732 (eA*eG*eG*eA*eT*dT*dG*dG*dT*dG*dG*dT*dG*dG*dG*eA*eT*eT*eG*eG; antisense) [compound 547732] | 0
9 | 547025 (eT*eG*eG*eT*eG*dG*dT*dG*dG*dG*dA*dT*dT*dG*dG*eT*eG*eG*eT*eT; antisense) [compound 547025] | 72
10 | 547734 (eG*eT*eA*eG*eG*dA*dT*dT*dG*dG*dT*dG*dG*dT*dG*eG*eG*eA*eT*eT; antisense) [compound 547734] | 14
11 | 547762 (antisense eT*eG*eA*eA*eA*d[5mC]*dT*dG*dG*dG*d[5mC]*dA*dG*dT*d[5mC]*e[5mC]*eT*eT*e[5mC]*e[5mC]) [compound 547762] | 0
12 | 547745 (eT*eT*eG*eG*eT*dG*dG*dT*dG*dG*dG*dA*dT*dT*dG*eG*eT*eG*eG*e[5mC]; antisense) [compound 547745] | 55

Same assay, conditions: HepaRG cells, electroporation with 5,000 nM antisense oligonucleotide, approximately 24 hours, PKK mRNA by RT-PCR (RTS3454), relative to untreated control cells; Table 5 experiment

Row | Substance | % inhibition [%]
13 | 547303 (antisense eT*eT*e[5mC]*eT*e[5mC]*d[5mC]*dA*dT*dG*dT*d[5mC]*dA*dT*dT*dG*eA*eT*eT*eG*eA) [compound 547303] | 72
14 | 546170 (antisense eG*e[5mC]*eA*eA*e[5mC]*d[5mC]*dA*dA*dA*d[5mC]*d[5mC]*dT*dT*dT*dT*e[5mC]*eT*e[5mC]*e[5mC]*eA) [compound 546170] | 54
15 | 546140 (eG*e[5mC]*eT*eT*eG*d[5mC]*dT*dT*dG*dA*dA*dT*dA*dA*dA*eA*eT*e[5mC]*eA*eT; antisense) [compound 546140] | 60
16 | 546156 (eG*eA*eA*eT*eG*dT*dG*d[5mC]*dA*d[5mC]*d[5mC]*dT*d[5mC]*dA*dT*e[5mC]*eT*eG*eG*e[5mC]; antisense) [compound 546156] | 81
17 | 547305 (antisense eA*e[5mC]*e[5mC]*eA*eA*dA*d[5mC]*d[5mC]*dT*dT*dT*dT*d[5mC]*dT*d[5mC]*e[5mC]*eA*eT*eG*eT) [compound 547305] | 47

Same assay, conditions: HepaRG cells, electroporation with 5,000 nM antisense oligonucleotide, approximately 24 hours, PKK mRNA by RT-PCR (RTS3454), relative to untreated control cells; Table 6 experiment

Row | Substance | % inhibition [%]
18 | 546192 (antisense eA*eA*eT*eT*eG*dA*d[5mC]*dT*d[5mC]*d[5mC]*dT*d[5mC]*dT*d[5mC]*dA*eT*eA*eT*e[5mC]*eA) [compound 546192] | 51
19 | 547356 (eT*eA*eA*eT*eA*dG*dG*d[5mC]*dA*dA*dT*dT*dG*dT*dT*e[5mC]*e[5mC]*eG*eG*eT; antisense) [compound 547356] | 83

Same assay, conditions: HepaRG cells, electroporation, 5,000 nM antisense oligonucleotide, approx. 24 hours, primer probe set RTS3454, relative to untreated control cells; Table 11

Row | Substance | % inhibition [%]
20 | 547489 (antisense eA*eG*eA*e[5mC]*eA*d[5mC]*d[5mC]*dA*dG*dG*dT*dT*dG*d[5mC]*dT*e[5mC]*e[5mC]*e[5mC]*eT*eG) [compound 547489] | 34

Same assay, conditions: HepaRG cells, electroporation, 5,000 nM antisense oligonucleotide, approx. 24 hours, primer probe set RTS3454, relative to untreated control cells; Table 12

Row | Substance | % inhibition [%]
21 | 547532 (antisense e[5mC]*eT*eG*e[5mC]*e[5mC]*dA*dA*d[5mC]*dA*dG*dT*dT*dT*d[5mC]*dA*eA*e[5mC]*eT*eT*eT) [compound 547532] | 65
22 | 547556 (eG*e[5mC]*e[5mC]*eA*eT*dT*dT*dT*dA*dT*d[5mC]*d[5mC]*d[5mC]*dT*dG*eA*eG*eA*eT*eT; antisense) [compound 547556] | 55
23 | 547538 (antisense e[5mC]*e[5mC]*eA*eG*e[5mC]*dA*dG*dA*dA*dA*dT*d[5mC]*d[5mC]*dT*dG*eT*eG*e[5mC]*eA*eT) [compound 547538] | 77

Same assay, conditions: Table 7; HepaRG cells, electroporation with 5,000 nM antisense oligonucleotide, approx. 24 hours; PKK mRNA by RT-PCR (RTS3454), relative to untreated control cells

Row | Substance | % inhibition [%]
24 | 547367 (eA*eT*e[5mC]*eT*eG*dG*dA*dG*dT*dG*dA*dG*dA*dA*d[5mC]*e[5mC]*e[5mC]*eT*eG*eG; antisense) [compound 547367] | 76
25 | 547387 (eT*eG*eG*eT*eG*dT*dT*dT*dT*d[5mC]*dT*dT*dG*dA*dG*eG*eA*eG*eT*eA; antisense) [compound 547387] | 73
26 | 546220 (antisense eT*eA*eG*eG*eT*dG*d[5mC]*dA*dG*dA*dT*dG*dG*dT*d[5mC]*e[5mC]*eG*eA*e[5mC]*eA) [compound 546220] | 71

Same assay, conditions: Table 8; HepaRG cells, electroporation with 5,000 nM antisense oligonucleotide, approx. 24 hours; PKK mRNA by RT-PCR (RTS3454), relative to untreated control cells

Row | Substance | % inhibition [%]
27 | 546276 (eT*eG*eG*eA*eG*dA*dA*d[5mC]*d[5mC]*dA*dT*d[5mC]*d[5mC]*dA*dT*eA*eG*eA*eT*eA; antisense) [compound 546276] | 74
28 | 546295 (antisense e[5mC]*e[5mC]*e[5mC]*eA*e[5mC]*dT*dG*dG*dT*dG*dT*d[5mC]*d[5mC]*dT*dA*eT*eG*eA*eG*eT) [compound 546295] | 67
29 | 547439 (antisense eT*e[5mC]*eT*eG*eA*dG*d[5mC]*dT*dG*dT*d[5mC]*dA*dG*d[5mC]*dT*eT*e[5mC]*eA*e[5mC]*e[5mC]) [compound 547439] | 85

Same assay, conditions: Table 9 experiment; HepaRG cells, 20,000 cells per well, electroporation with 5,000 nM antisense oligonucleotide, approx. 24 hours; PKK mRNA by RT-PCR (RTS3454), relative to untreated control cells

Row | Substance | % inhibition [%]
30 | 547458 (antisense eT*eA*eT*e[5mC]*eA*dA*dG*dG*d[5mC]*dG*dA*dT*dA*dT*d[5mC]*eA*eT*eG*eA*eT) [compound 547458] | 84
31 | 547479 (antisense eT*eA*eT*eA*eA*dT*d[5mC]*dT*dT*dG*dA*dT*dA*dT*d[5mC]*eT*eT*eT*eT*e[5mC]) [compound 547479] | 48
32 | 547474 (antisense eT*eG*eT*eA*eG*dA*dA*dT*dA*dT*dT*dT*dT*dG*dG*eA*eT*eT*eT*e[5mC]) [compound 547474] | 51
33 | 547486 (antisense eT*eG*e[5mC]*eA*eA*dA*d[5mC]*dT*dA*dA*dG*dG*dG*dA*d[5mC]*e[5mC]*eA*e[5mC]*e[5mC]*eT) [compound 547486] | 89

Same assay, conditions: Table 10 experiment; HepaRG cells, 20,000 cells per well, electroporation with 5,000 nM antisense oligonucleotide, approx. 24 hours; PKK mRNA by RT-PCR (RTS3454), relative to untreated control cells

Row | Substance | % inhibition [%]
34 | 547458 (antisense eT*eA*eT*e[5mC]*eA*dA*dG*dG*d[5mC]*dG*dA*dT*dA*dT*d[5mC]*eA*eT*eG*eA*eT) [compound 547458] | 64
35 | 547479 (antisense eT*eA*eT*eA*eA*dT*d[5mC]*dT*dT*dG*dA*dT*dA*dT*d[5mC]*eT*eT*eT*eT*e[5mC]) [compound 547479] | 9
36 | 547474 (antisense eT*eG*eT*eA*eG*dA*dA*dT*dA*dT*dT*dT*dT*dG*dG*eA*eT*eT*eT*e[5mC]) [compound 547474] | 34
37 | 547486 (antisense eT*eG*e[5mC]*eA*eA*dA*d[5mC]*dT*dA*dA*dG*dG*dG*dA*d[5mC]*e[5mC]*eA*e[5mC]*e[5mC]*eT) [compound 547486] | 78

Same assay, conditions: Table 13; human PKK mRNA in HepaRG cells; 5-10-5 gapmers

Row | Substance | % inhibition [%]
38 | 547562 (e[5mC]*eT*eT*eT*e[5mC]*dT*dT*dG*dA*dG*dA*d[5mC]*dA*dA*dT*e[5mC]*e[5mC]*e[5mC]*eT*eT; antisense) [compound 547562] | 59
39 | 547568 (eG*e[5mC]*eA*e[5mC]*e[5mC]*d[5mC]*dT*dT*dT*dT*d[5mC]*dA*dT*dT*dG*eA*eG*eA*eT*eT; antisense) [compound 547568] | 70
40 | 546841 (e[5mC]*eA*e[5mC]*eT*eG*dT*d[5mC]*d[5mC]*dT*dA*dT*dA*dA*d[5mC]*dT*e[5mC]*eT*eA*eA*e[5mC]; antisense) [compound 546841] | 38

Same assay, conditions: human PKK mRNA in HepaRG cells; 5-10-5 gapmers; Table 14

Row | Substance | % inhibition [%]
41 | 547614 (antisense e[5mC]*e[5mC]*eT*eA*eT*dA*dT*d[5mC]*dA*d[5mC]*dT*dG*dT*dA*d[5mC]*e[5mC]*eT*eG*eT*eA) [compound 547614] | 81
42 | 547606 (antisense eA*eA*e[5mC]*eA*eA*dT*dA*dT*d[5mC]*dA*d[5mC]*dT*dG*dT*dA*e[5mC]*e[5mC]*eT*eA*eT) [compound 547606] | 43
43 | 546861 (eT*eA*eA*e[5mC]*eA*dA*dT*dA*dT*d[5mC]*dA*d[5mC]*dT*dG*dT*e[5mC]*e[5mC]*eT*eA*eT; antisense) [compound 546861] | 68

Same assay, conditions: human PKK mRNA, HepaRG cells, 5,000 nM antisense oligonucleotide, Table 18

Row | Substance | % inhibition [%]
44 | 548774 (antisense e[5mC]*e[5mC]*eT*eA*dT*dA*dA*d[5mC]*dT*dA*dT*dA*dA*e[5mC]*eA*eG*eT) [compound 548774] | 0

Same assay, conditions: human PKK mRNA, HepaRG cells; 5-10-5 motif oligonucleotides targeting SEQ ID NO: 1 and 10

Row | Substance | % inhibition [%]
45 | 546911 (eG*eT*e[5mC]*e[5mC]*eT*dA*dT*dA*dA*d[5mC]*dT*dA*dT*dA*dA*e[5mC]*eA*eA*eT*eA; antisense) [compound 546911] | 52
46 | 546890 (eT*eG*eT*e[5mC]*e[5mC]*dT*dA*dT*dG*dT*d[5mC]*dA*d[5mC]*dT*dG*eT*eA*e[5mC]*e[5mC]*eT; antisense) [compound 546890] | 78
